From patent US20260297085A1, “1 H-PYRROLO[2,3-B]PYRIDIN-4-YL]-2-OXOPYRROLIDINE-3-CARBONITRILE DERIVATIVES AS TYROSINE KINASE 2 (TYK2) INHIBITORS FOR THE TREATMENT OF INFLAMMATORY DISEASES” (BIOGEN MA INC., priority 2023, published 2026)
Counter-ions that a name gives are not always drawn.

Tests used:
[1] = biological target: T1, human TYK2 kinase domain (JH1) (Homo sapiens, UniProt P29597); test: JH1 biochemical assay for TYK2 (ADP-Glo kinase assay, recombinant JH1 catalytic domain, JAK3-974 peptide, 10 μM ATP); conditions: JH1 kinase domain, ADP-Glo
T1 construct: recombinantly generated catalytic kinase (also known as JH1) domain of human JAK1, JAK2, JAK3 and TYK2
T1 sequence (P29597 897-1176 limits assumed): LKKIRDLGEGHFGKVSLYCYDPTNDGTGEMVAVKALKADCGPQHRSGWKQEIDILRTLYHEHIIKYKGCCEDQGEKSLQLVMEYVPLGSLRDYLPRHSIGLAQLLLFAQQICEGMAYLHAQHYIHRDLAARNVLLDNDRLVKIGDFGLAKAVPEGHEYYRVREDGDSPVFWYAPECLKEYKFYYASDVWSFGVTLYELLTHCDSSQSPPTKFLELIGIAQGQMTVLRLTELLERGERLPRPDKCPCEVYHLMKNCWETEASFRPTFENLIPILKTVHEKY
Procedure, shortened: (§1)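 Compounds were titrated in 11 points of 3-fold dilution starting at 10 μM or 1 μM. Enzyme (JAK1 4 nM, JAK2 0.2 nM, JAK3 0.3 nM, TYK2 2 nM) and 50 μM peptide reacted for 100 minutes, followed by ADP-to-luminescence detection; IC50 by 4-parameter fit.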

[2] = biological target: JAK2 kinase activity on STAT5 in TF1 cells (Homo sapiens, UniProt O60674); test: pSTAT5 cell assay (MSD; TF1 cells, 30 ng/mL IL-3 stimulation); type: cell-based; conditions: 30 ng/mL IL-3, 15 minutes
Procedure, shortened: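 Serum-starved TF1 cells with native JAK2/STAT5 were pretreated 1 h with compound (10-point four-fold dilutions from 10 μM), then stimulated 15 min with 30 ng/mL IL-3. pSTAT5 in lysates quantified by MSD immunoassay; normalized percent activity fitted to a 4-parameter logistic curve for IC50.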

[3] = biological target: JAK1 kinase activity on STAT3 in TF1 cells (Homo sapiens, UniProt P23458); test: pSTAT3 cell assay (MSD; TF1 cells, 30 ng/mL IL-6 stimulation); type: cell-based; conditions: 30 ng/mL IL-6, 15 minutes
Procedure, shortened: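 Readout is pSTAT3 in lysates, quantified on an MSD plate assay using anti-STAT3 antibodies. Before lysis, TF1 cells had been serum-starved, exposed to compound for 1 hour across ten four-fold dilutions starting at 10 μM, and given IL-6 for 15 minutes.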

[4] = biological target: T2, human JAK3 kinase domain (JH1) (Homo sapiens, UniProt P52333); test: JH1 biochemical assay for JAK3 (ADP-Glo kinase assay, recombinant JH1 catalytic domain, JAK3-974 peptide, 4 μM ATP); conditions: JH1 kinase domain, ADP-Glo
T2 construct: recombinantly generated catalytic kinase (also known as JH1) domain of human JAK1, JAK2, JAK3 and TYK2
Procedure, shortened: as §1

[5] = biological target: Tyk2 kinase activity on STAT4 in NK92 cells (Homo sapiens, UniProt P29597); test: pSTAT4 cell assay (MSD; NK92 cells, 30 ng/mL IL2 stimulation); type: cell-based; conditions: 30 ng/mL IL2, 15 minutes
Procedure, shortened: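 Serum-starved NK92 cells, which natively express Tyk2 and STAT4, were pretreated for 1 h with a 10-point 4-fold dilution series from 10 μM. They were then stimulated with 30 ng/mL IL2 for 15 min. Phospho-STAT in lysates was quantified by MSD with anti-STAT4 antibodies, and IC50 was obtained from 4-parameter logistic fits.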

[6] = biological target: T3, human JAK2 kinase domain (JH1) (Homo sapiens, UniProt O60674); test: JH1 biochemical assay for JAK2 (ADP-Glo kinase assay, recombinant JH1 catalytic domain, JAK3-974 peptide, 15 μM ATP); conditions: JH1 kinase domain, ADP-Glo
T3 construct: recombinantly generated catalytic kinase (also known as JH1) domain of human JAK1, JAK2, JAK3 and TYK2
Procedure, shortened: as §1

[7] = biological target: T4, human JAK1 kinase domain (JH1) (Homo sapiens, UniProt P23458); test: JH1 biochemical assay for JAK1 (ADP-Glo kinase assay, recombinant JH1 catalytic domain, JAK3-342 peptide, 35 μM ATP); conditions: JH1 kinase domain, ADP-Glo
T4 construct: recombinantly generated catalytic kinase (also known as JH1) domain of human JAK1, JAK2, JAK3 and TYK2
Procedure, shortened: as §1

T2 sequence (P52333 822-1111 limits assumed): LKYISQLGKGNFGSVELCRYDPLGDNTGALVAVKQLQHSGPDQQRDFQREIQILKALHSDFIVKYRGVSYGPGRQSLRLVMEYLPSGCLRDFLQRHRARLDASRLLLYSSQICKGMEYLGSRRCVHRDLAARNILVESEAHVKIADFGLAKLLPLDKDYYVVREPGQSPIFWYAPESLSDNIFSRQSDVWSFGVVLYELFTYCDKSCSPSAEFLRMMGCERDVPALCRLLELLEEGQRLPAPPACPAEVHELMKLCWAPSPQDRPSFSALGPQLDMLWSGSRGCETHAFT
Chain of JAK1 kinase activity on STAT3 in TF1 cells (P23458 whole entry): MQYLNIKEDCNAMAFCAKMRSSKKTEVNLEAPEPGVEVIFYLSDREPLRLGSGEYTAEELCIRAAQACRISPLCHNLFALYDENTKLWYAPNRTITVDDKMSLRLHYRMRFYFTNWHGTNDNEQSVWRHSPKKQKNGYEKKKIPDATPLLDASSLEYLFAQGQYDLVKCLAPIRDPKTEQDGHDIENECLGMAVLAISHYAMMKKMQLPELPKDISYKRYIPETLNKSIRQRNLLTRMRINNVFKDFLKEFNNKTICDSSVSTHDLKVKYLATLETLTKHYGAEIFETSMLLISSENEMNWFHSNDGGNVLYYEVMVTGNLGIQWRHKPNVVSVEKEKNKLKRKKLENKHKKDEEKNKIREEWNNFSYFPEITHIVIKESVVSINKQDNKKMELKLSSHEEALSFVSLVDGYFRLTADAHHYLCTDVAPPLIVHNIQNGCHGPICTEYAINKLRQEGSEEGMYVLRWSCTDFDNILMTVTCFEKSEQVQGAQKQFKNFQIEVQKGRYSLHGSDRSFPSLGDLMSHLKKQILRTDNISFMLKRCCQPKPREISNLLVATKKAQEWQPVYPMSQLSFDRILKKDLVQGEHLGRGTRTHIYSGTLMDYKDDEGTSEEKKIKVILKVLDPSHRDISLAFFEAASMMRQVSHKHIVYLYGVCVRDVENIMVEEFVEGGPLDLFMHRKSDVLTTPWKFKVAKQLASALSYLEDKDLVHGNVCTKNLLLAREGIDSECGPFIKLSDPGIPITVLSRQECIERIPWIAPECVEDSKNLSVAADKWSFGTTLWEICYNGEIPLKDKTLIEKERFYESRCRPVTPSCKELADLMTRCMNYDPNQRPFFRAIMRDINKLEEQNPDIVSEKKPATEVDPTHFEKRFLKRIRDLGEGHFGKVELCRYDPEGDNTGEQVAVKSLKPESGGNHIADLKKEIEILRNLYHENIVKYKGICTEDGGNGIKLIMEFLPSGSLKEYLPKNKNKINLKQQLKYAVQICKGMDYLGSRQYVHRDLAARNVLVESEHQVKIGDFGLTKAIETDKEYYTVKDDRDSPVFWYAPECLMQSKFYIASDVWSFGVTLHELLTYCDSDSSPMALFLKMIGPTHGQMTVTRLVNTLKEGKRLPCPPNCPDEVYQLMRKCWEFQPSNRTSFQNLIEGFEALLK
T3 sequence (O60674 849-1124 limits assumed): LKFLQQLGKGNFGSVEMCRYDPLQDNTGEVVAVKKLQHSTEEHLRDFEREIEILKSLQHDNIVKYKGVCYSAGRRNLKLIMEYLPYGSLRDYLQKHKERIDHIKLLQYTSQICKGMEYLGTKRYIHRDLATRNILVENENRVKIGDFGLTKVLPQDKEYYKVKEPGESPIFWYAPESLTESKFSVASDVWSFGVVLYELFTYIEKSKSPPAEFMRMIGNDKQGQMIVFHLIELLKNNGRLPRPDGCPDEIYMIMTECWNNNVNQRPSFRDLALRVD
Chain of Tyk2 kinase activity on STAT4 in NK92 cells (P29597 whole entry): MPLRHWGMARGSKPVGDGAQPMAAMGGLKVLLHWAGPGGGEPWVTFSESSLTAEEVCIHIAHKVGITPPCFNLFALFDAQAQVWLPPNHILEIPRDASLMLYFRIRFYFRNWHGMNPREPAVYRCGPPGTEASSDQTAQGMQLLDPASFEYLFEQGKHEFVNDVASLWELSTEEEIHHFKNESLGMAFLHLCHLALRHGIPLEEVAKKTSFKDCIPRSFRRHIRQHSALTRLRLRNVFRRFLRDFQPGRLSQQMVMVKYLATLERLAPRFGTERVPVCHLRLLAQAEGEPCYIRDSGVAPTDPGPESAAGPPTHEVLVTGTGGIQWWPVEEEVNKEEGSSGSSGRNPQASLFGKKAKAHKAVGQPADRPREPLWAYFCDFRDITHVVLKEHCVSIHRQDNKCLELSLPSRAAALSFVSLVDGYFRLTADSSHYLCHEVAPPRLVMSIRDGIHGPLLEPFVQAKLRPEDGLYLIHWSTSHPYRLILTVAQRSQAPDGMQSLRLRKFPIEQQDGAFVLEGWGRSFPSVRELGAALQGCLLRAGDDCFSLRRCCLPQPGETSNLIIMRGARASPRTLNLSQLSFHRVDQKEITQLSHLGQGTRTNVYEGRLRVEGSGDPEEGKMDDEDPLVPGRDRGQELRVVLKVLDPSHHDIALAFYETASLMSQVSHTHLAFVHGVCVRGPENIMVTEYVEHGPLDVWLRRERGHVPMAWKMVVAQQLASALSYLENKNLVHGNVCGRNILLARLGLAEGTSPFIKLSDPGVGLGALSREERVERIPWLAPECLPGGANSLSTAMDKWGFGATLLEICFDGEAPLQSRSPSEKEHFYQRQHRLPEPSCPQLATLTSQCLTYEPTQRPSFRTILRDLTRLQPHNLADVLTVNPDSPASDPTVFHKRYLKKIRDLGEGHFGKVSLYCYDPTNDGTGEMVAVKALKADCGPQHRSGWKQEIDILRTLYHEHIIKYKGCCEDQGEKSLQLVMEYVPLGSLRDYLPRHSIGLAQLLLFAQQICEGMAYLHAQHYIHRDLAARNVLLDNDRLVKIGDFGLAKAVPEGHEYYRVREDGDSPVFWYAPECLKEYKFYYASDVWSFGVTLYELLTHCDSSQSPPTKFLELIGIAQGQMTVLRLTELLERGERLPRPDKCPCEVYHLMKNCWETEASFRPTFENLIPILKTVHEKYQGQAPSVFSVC
Chain of JAK2 kinase activity on STAT5 in TF1 cells (O60674 whole entry): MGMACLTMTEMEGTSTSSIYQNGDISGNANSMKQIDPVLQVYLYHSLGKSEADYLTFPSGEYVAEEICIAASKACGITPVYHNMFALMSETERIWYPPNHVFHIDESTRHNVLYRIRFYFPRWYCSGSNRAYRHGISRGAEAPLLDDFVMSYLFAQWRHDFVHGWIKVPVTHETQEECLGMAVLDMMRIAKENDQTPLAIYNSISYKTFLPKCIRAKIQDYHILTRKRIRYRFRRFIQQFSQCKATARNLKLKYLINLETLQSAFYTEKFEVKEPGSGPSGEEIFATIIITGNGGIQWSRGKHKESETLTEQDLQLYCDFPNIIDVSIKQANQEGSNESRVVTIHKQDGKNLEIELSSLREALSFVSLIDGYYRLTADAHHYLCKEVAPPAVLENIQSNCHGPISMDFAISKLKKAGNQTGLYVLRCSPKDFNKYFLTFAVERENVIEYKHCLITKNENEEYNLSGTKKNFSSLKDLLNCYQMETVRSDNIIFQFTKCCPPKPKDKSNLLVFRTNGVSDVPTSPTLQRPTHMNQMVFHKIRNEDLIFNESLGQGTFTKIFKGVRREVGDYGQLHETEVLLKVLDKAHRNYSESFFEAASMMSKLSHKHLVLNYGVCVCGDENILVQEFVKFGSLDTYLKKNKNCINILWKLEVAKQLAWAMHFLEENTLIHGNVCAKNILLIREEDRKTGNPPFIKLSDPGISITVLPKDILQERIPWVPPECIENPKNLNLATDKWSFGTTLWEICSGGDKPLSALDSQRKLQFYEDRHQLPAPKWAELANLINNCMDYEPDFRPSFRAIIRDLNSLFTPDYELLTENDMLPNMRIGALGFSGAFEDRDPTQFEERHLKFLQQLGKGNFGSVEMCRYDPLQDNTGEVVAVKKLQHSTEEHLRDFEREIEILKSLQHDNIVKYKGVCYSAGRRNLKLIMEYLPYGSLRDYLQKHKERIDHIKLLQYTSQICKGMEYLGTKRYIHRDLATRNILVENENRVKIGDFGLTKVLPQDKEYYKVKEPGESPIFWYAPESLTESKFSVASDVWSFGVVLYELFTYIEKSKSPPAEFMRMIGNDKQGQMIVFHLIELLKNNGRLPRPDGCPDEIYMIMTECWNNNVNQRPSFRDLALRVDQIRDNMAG
T4 sequence (P23458 875-1153 limits assumed): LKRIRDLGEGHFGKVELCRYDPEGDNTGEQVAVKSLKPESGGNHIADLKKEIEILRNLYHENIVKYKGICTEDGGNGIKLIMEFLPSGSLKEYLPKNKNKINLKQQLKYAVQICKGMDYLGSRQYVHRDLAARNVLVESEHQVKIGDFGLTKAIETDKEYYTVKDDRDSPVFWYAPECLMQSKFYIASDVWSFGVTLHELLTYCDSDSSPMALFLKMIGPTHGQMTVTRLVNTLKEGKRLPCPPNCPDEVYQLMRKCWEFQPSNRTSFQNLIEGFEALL

Row | Compound | IC50 [1] | IC50 [2] | IC50 [3] | IC50 [4] | IC50 [5] | IC50 [6] | IC50 [7]
1 | C[C@@H]1CN(c2ccnn3cc(-c4ccnc(C(F)(F)F)c4)cc23)C(=O)[C@]1(C#N)C1CC1 [Example 69, (3R,4S)-3-cyclopropyl-4-methyl-2-oxo-1-(6-(2-(trifluoromethyl)pyridin-4-yl)pyrrolo[1,2-b]pyridazin-4-yl)pyrrolidine-3-carbonitrile] | 0.005 to 0.02 µM | > 10 µM | 5 to 10 µM | 0.1 to 1 µM | > 0.1 µM | 1 to 5 µM | 0.1 to 1 µM
2 | Cc1cncc(-c2cc3c(N4C[C@@H](C)[C@@](C#N)(C5CC5)C4=O)ccnn3c2)c1 [Example 71, (3R,4S)-3-cyclopropyl-4-methyl-1-(6-(5-methylpyridin-3-yl)pyrrolo[1,2-b]pyridazin-4-yl)-2-oxopyrrolidine-3-carbonitrile] | 0.005 to 0.02 µM | > 10 µM | 1 to 5 µM | 0.1 to 1 µM | > 0.1 µM | 0.1 to 1 µM | 0.1 to 1 µM
3 | C[C@@H]1CN(c2ccnn3cc(-c4c[nH]c5ncccc45)cc23)C(=O)[C@]1(C#N)C1CC1 [Example 72, (3R,4S)-1-(6-(1H-pyrrolo[2,3-b]pyridin-3-yl)pyrrolo[1,2-b]pyridazin-4-yl)-3-cyclopropyl-4-methyl-2-oxopyrrolidine-3-carbonitrile] | 0.005 to 0.02 µM | 5 to 10 µM | 1 to 5 µM | 0.1 to 1 µM | > 0.1 µM | 0.1 to 1 µM | 0.1 to 1 µM
4 | C[C@@H]1CN(c2ccnn3cc(-c4ccnc(F)c4)cc23)C(=O)[C@]1(C#N)C1CC1 [Example 73, (3R,4S)-3-cyclopropyl-1-(6-(2-fluoropyridin-4-yl)pyrrolo[1,2-b]pyridazin-4-yl)-4-methyl-2-oxopyrrolidine-3-carbonitrile] | 0.005 to 0.02 µM | > 10 µM | 1 to 5 µM | 0.1 to 1 µM | > 0.1 µM | 0.1 to 1 µM | 0.1 to 1 µM
5 | C[C@@H]1CN(c2ccnn3cc(-c4ccc(C(F)(F)F)nc4)cc23)C(=O)[C@]1(C#N)C1CC1 [Example 74, (3R,4S)-3-cyclopropyl-4-methyl-2-oxo-1-(6-(6-(trifluoromethyl)pyridin-3-yl)pyrrolo[1,2-b]pyridazin-4-yl)pyrrolidine-3-carbonitrile] | 0.005 to 0.02 µM | > 10 µM | 5 to 10 µM | 0.1 to 1 µM | > 0.1 µM | 1 to 5 µM | 0.1 to 1 µM
6 | C[C@@H]1CN(c2ccnn3cc(-c4cnc5[nH]ncc5c4)cc23)C(=O)[C@]1(C#N)C1CC1 [Example 75, (3R,4S)-1-(6-(1H-pyrazolo[3,4-b]pyridin-5-yl)pyrrolo[1,2-b]pyridazin-4-yl)-3-cyclopropyl-4-methyl-2-oxopyrrolidine-3-carbonitrile] | < 0.005 µM | > 10 µM | 1 to 5 µM | 0.1 to 1 µM | 0.05 to 0.1 µM | 0.1 to 1 µM | < 0.1 µM
7 | Cc1cc(-c2cc3c(N4C[C@@H](C)[C@@](C#N)(C5CC5)C4=O)ccnn3c2)ccn1 [Example 77, (3R,4S)-3-cyclopropyl-4-methyl-1-(6-(2-methylpyridin-4-yl)pyrrolo[1,2-b]pyridazin-4-yl)-2-oxopyrrolidine-3-carbonitrile] | < 0.005 µM | 1 to 5 µM | 0.1 to 1 µM | 0.1 to 1 µM | 0.05 to 0.1 µM | 0.1 to 1 µM | < 0.1 µM

Continued, values first:

Row | IC50 [1] | IC50 [2] | IC50 [3] | IC50 [4] | IC50 [5] | IC50 [6] | IC50 [7] | Compound
8 | 0.005 to 0.02 µM | > 10 µM | > 10 µM | 0.1 to 1 µM | > 0.1 µM | 0.1 to 1 µM | 0.1 to 1 µM | C[C@@H]1CN(c2ccnn3cc(-c4ccn(C)c(=O)c4)cc23)C(=O)[C@]1(C#N)C1CC1 [Example 79, (3R,4S)-3-cyclopropyl-4-methyl-1-(6-(1-methyl-2-oxo-1,2-dihydropyridin-4-yl)pyrrolo[1,2-b]pyridazin-4-yl)-2-oxopyrrolidine-3-carbonitrile]
9 | 0.005 to 0.02 µM | > 10 µM | 5 to 10 µM | 0.1 to 1 µM | > 0.1 µM | 0.1 to 1 µM | 0.1 to 1 µM | C[C@@H]1CN(c2ccnn3cc(-c4ccc(F)nc4)cc23)C(=O)[C@]1(C#N)C1CC1 [Example 81, (3R,4S)-3-cyclopropyl-1-(6-(6-fluoropyridin-3-yl)pyrrolo[1,2-b]pyridazin-4-yl)-4-methyl-2-oxopyrrolidine-3-carbonitrile]
10 | < 0.005 µM | 5 to 10 µM | 1 to 5 µM | 0.1 to 1 µM | 0.05 to 0.1 µM | 0.1 to 1 µM | < 0.1 µM | C[C@@H]1CN(c2ccnn3cc(-c4ccc(=O)n(C)c4)cc23)C(=O)[C@]1(C#N)C1CC1 [Example 83, (3R,4S)-3-cyclopropyl-4-methyl-1-(6-(1-methyl-6-oxo-1,6-dihydropyridin-3-yl)pyrrolo[1,2-b]pyridazin-4-yl)-2-oxopyrrolidine-3-carbonitrile]
11 | 0.005 to 0.02 µM | > 10 µM | 5 to 10 µM | 0.1 to 1 µM | > 0.1 µM | 1 to 5 µM | 0.1 to 1 µM | C[C@@H]1CN(c2ccnn3cc(-c4cncc(F)c4)cc23)C(=O)[C@]1(C#N)C1CC1 [Example 84, (3R,4S)-3-cyclopropyl-1-(6-(5-fluoropyridin-3-yl)pyrrolo[1,2-b]pyridazin-4-yl)-4-methyl-2-oxopyrrolidine-3-carbonitrile]
12 | 0.005 to 0.02 µM | > 10 µM | 5 to 10 µM | 0.1 to 1 µM | > 0.1 µM | 1 to 5 µM | 0.1 to 1 µM | C[C@@H]1CN(c2ccnn3cc(-c4ccc(C#N)nc4)cc23)C(=O)[C@]1(C#N)C1CC1 [Example 86, 5-(4-((3R,4S)-3-cyano-3-cyclopropyl-4-methyl-2-oxopyrrolidin-1-yl)pyrrolo[1,2-b]pyridazin-6-yl)picolinonitrile trifluoroacetate]
13 | < 0.005 µM | 1 to 5 µM | 0.1 to 1 µM | 0.1 to 1 µM | 0.02 to 0.05 µM | 0.1 to 1 µM | < 0.1 µM | C[C@@H]1CN(c2ccnn3cc(-c4ccc5nccn5c4)cc23)C(=O)[C@]1(C#N)C1CC1 [Example 88, (3R,4S)-3-cyclopropyl-1-(6-(imidazo[1,2-a]pyridin-6-yl)pyrrolo[1,2-b]pyridazin-4-yl)-4-methyl-2-oxopyrrolidine-3-carbonitrile]
14 | 0.005 to 0.02 µM | > 10 µM | 5 to 10 µM | 0.1 to 1 µM | > 0.1 µM | 0.1 to 1 µM | 0.1 to 1 µM | CC(=O)Nc1cncc(-c2cc3c(N4C[C@@H](C)[C@@](C#N)(C5CC5)C4=O)ccnn3c2)c1 [Example 90, N-(5-(4-((3R,4S)-3-cyano-3-cyclopropyl-4-methyl-2-oxopyrrolidin-1-yl)pyrrolo[1,2-b]pyridazin-6-yl)pyridin-3-yl)acetamide]
15 | 0.005 to 0.02 µM | > 10 µM | 5 to 10 µM | 0.1 to 1 µM | > 0.1 µM | 0.1 to 1 µM | 0.1 to 1 µM | C[C@@H]1CN(c2ccnn3cc(-c4ccnc(C#N)c4)cc23)C(=O)[C@]1(C#N)C1CC1 [Example 93, 4-(4-((3R,4S)-3-cyano-3-cyclopropyl-4-methyl-2-oxopyrrolidin-1-yl)pyrrolo[1,2-b]pyridazin-6-yl)picolinonitrile]
16 | 0.005 to 0.02 µM | > 10 µM | > 10 µM | 1 to 5 µM | > 0.1 µM | 1 to 5 µM | 1 to 5 µM | COc1ncccc1-c1cc2c(N3C[C@@H](C)[C@@](C#N)(C4CC4)C3=O)ccnn2c1 [Example 96, (3R,4S)-3-cyclopropyl-1-(6-(2-methoxypyridin-3-yl)pyrrolo[1,2-b]pyridazin-4-yl)-4-methyl-2-oxopyrrolidine-3-carbonitrile]
17 | < 0.005 µM | 1 to 5 µM | 1 to 5 µM | < 0.1 µM | 0.02 to 0.05 µM | < 0.1 µM | < 0.1 µM | C[C@@H]1CN(c2ccnn3cc(-c4cnn(C5COC5)c4)cc23)C(=O)[C@]1(C#N)C1CC1 [Example 97, (3R,4S)-3-cyclopropyl-4-methyl-1-(6-(1-(oxetan-3-yl)-1H-pyrazol-4-yl)pyrrolo[1,2-b]pyridazin-4-yl)-2-oxopyrrolidine-3-carbonitrile]
